Literature values in US8079695B2, “Inkjet inks having improved print uniformity” (Eastman Kodak Company, priority 2008, dated 2011).

Details: measured and predicted values (handbooks or ACD/LABS v8.14); lowest pKa given for di-carboxylic acids

In order of falling pKa:
1. C=C(C)C(=O)O [Methacrylic acid (MA), Methacrylic acid]  4.7
2. C=CC(=O)O [Acrylic acid]  4.3
3. O=C(O)/C=C/Cl [trans-chloroacrylic acid]  3.7
4. C=C(Cl)C(=O)O [α-chloroacrylic acid]  3.3
5. C/C(=C\C(=O)O)C(=O)O [Mesaconic acid]  3.1
6. C=CC(=O)NC(C)(C)CS(=O)(=O)O [2-acrylamido-2-methylpropane sulfonic acid]  1.7
7. C=CCS(=O)(=O)O [Allyl sulfonic acid]  1.5
8. C=C(C)C(=O)OCCS(=O)(=O)O [2-propenoic acid, 2-methyl-, 2-sulfoethyl ester]  1.0
